The test system of data set [1] is EYA1A^tg mice challenged with UUO. In words: Unilateral ureteral obstruction (UUO) kidney fibrosis in EYA1A^tg mice. The format is in vivo, mouse. As for the experimental part:
From 3 days before surgery, C57BL/6 (referred as wildtype) or transgenic mice overexpressing human splice variants EYA1A (rtTACMV;hEYA1A-pTreTight, referred to as EYA1A^tg) and EYA1C (rtTACMV;hEYA1C-pTreTight, referred to as EYA1C^tg) were treated with either vehicle buffer (glucose 5%) or DOX (2 mg/ml, Sigma, St. Louis, USA) within drinking water ad libidum and renewal every 2 days.
Mice were anesthetized with isoflurane inhalation (2-3%), analgesia was performed by subcutaneous injection of 0.1 mg/kg body weight per day Buprenorphine. The ureter was separated from the surrounding tissues and two ligatures were placed about 5 mm apart in upper two-thirds of the left ureter to obtain reliable obstruction. Mice were sacrificed 3, 7 or 10 days after ureteral obstruction for further analyses.
Mice were injected intraperitoneally with Na3VO4 (8 mg/kg i.p. once per day, Sigma, St. Louis, USA) or caffeine (12.5 mg/kg i.p. once per day, Sigma, St. Louis, USA) starting one day prior of surgery, control mice received equivalent volume of PBS or DMSO.
Mice were injected intraperitoneally with SCR7 (20 mg/kg i.p. every alternate day, Sigma, St. Louis, USA) starting one day prior of surgery, control mice received equivalent volume of DMSO.
The inventors obtained 25 nucleotide antisense morpholino sequences (Gene Tools, Philomath, USA). The in vivo morpholinos contain a covalently linked octaguanidine dendrimer as a delivery moiety to facilitate entry into cells in vivo. Mice were injected intraperitoneally with 12.5 mg/kg body weight in vivo morpholinos in saline at a final volume of 100 μL every other day starting two days prior of surgery. A control in vivo
Lentiviral pLenti-Sce1 was produced in 293T virus packaging cells after transfection using morpholino that targets a human β-globin intron mutation was used as standard control. In vivo morpholino sequences are those of SEQ ID NOs: 9 (EYA1A-VMO), 10 (53Bp1-VMO) and 16 (control).
Formalin-fixed, paraffin-embedded kidneys and hearts from mice, and HOPE-fixed, paraffin-embedded human specimens were sectioned at 3 μm, Masson's Trichrome Stain (MTS) was performed at the University Medicine Göttingen. For morphometric analysis of interstitial fibrosis in mice and human biopsies, we assessed the fibrotic area using cellSens (Olympus, Tokyo, Japan) software. Ten visual fields were selected randomly for each MTS stained section at 200× magnification and the relative interstitial fibrotic area was evaluated by using a 10 mm^2 graticule.
Formalin-fixed, paraffin-embedded kidney sections from mice as well as from HOPE-fixed, paraffin-embedded human specimens were deparaffinized in xylene and rehydrated in ethanol containing distilled water. For immunofluorescent staining, EYA1 isoform antisera or primary antibodies against αSMA (A5228, Sigma, St. Louis, USA), Collagen-1 (ab34710, Abcam Biochemicals, Cambridge, UK), γH2A.X^pS139 (ab2893, Abcam Biochemicals, Cambridge, UK), γH2A.X^pS139 (05-636, Merck Millipore, Billerica, UK), γH2A.X^pY142 (ab94602, Abcam Biochemicals, Cambridge, UK), p-Chk1^pS317 (12302P, Cell Signaling, Danvers, USA), p-Chk2^pT68 (2197S, Cell Signaling, Danvers, USA), Rpa1 (2267S, Cell Signaling, Danvers, USA), Rad51 (sc-8349, Santa Cruz Biotechnology, Dallas, USA), 53Bp1 (sc-22760, Santa Cruz Biotechnology, Dallas, USA), Xrcc4 (sc-8285, Santa Cruz Biotechnology, Dallas, USA) and GFP (MA5-15256, Thermo Fisher Scientific, Waltham, USA) were used, secondary antibodies were labeled with Alexa Fluor 488, 594 or 647 (Life Technologies, Carlsbad, USA). Renal basement membranes were stained with antibodies against Collagen-4 (1340-30, SouthernBiotech, Birmingham, USA). Nuclear staining was performed using 4′,6-diamidino-2-phenylindole (DAPI, Vector Laboratories, Burlingame, USA). Quantifications were performed per high power field at 400× magnification, representative confocal pictures using an LSM 780 confocal laser scanning microscope (Zeiss, Oberkochen, Germany) are shown.

The target of another data set is T1, EYA1A (Homo sapiens, UniProt Q99502).
T1 construct: expressed in transfected cells; host or cells: transgenic fibroblasts
T1 sequence (Q99502 1-559 isoform Q99502-2): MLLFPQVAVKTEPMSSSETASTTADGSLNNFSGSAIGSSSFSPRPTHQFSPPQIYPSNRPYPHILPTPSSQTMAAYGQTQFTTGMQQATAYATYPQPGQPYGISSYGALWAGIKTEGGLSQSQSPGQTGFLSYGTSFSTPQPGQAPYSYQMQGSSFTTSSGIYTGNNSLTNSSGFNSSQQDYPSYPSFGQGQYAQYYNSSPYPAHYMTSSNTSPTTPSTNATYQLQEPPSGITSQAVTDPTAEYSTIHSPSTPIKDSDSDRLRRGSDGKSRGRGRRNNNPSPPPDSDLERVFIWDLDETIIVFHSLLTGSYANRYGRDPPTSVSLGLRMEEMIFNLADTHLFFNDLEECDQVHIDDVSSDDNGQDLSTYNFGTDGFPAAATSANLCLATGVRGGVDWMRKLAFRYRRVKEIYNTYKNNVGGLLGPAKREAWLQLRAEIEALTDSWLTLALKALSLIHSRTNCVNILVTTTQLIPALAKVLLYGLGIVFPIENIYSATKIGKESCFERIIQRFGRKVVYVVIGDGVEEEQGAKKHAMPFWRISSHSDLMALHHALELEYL
In words: Screen of NCI Mechanistic Set II for EYA1A phosphatase activity with pNPP substrate. The format is biochemical. The conditions noted are these: transgenic fibroblasts, compared to control cultures. On the procedure: FIG. 14 illustrates results of a screen for additional compounds for selective modulation of EYA1A phosphatase activity. The EYA1A phosphatase activity was estimated using p-nitrophenyl phosphate (pNPP) substrate. Briefly, phosphatase activity was determined in transgenic fibroblasts and pNP production was determined in comparison to control cultures. Among 736 compounds contained in the NCI mechanistic set (NCI Mechanistic Set II), 228 inhibitors of EYA1A phosphatase activity were identified.
With regard to modulators of the phosphotyrosine phosphatase activity of EYA1, the inventors screened a small molecule library, namely the NCI “Mechanistic Set II library”, obtained from the open chemical repository of the Developmental Therapeutics Program (DTP) of the National Cancer Institute, illustrated by FIG. 14.
p-Nitrophenyl Phosphate (PNPP) is a non-proteinaceous, non-specific substrate used in the art to assay protein, alkaline and acid phosphatases. The PNPP phosphatase activity is measured using a continuous or single-point spectrophotometric assay based on the ability of phosphatases to catalyze the hydrolysis of PNPP to p-nitrophenol, a chromogenic product with absorbance at 405 nm. Any available protocol can be followed to determine phosphatase activity using pNPP.

Setting [2] is: in vivo morpholino 12.5 mg/kg i.p. every other day, EYA1A^tg mice, UUO, 10 days.
[3] abbreviates: SCR7 20 mg/kg i.p. every alternate day, EYA1A overexpressing mice, 10 days after ureteral obstruction.

For the molecule “EYA1A-VMO: in vivo morpholino, SEQ ID NO: 9, with covalently linked octaguanidine dendrimer, specifically inhibiting EYA1A translation (CTGCAACTTGAGGAAACAGCAACAT; all phosphorodiamidate morpholino (PMO); octaguanidine dendrimer covalently linked, position not given here, further chemistry not fully specified)”, the pro-fibrotic effects entry in data set [1] (in vivo morpholino 12.5 mg/kg i.p. every other day, EYA1A overexpressing mice, 10 days after ureteral obstruction) was “reversed pro-fibrotic effects”. As to “53Bp1-VMO: in vivo morpholino, SEQ ID NO: 10, with covalently linked octaguanidine dendrimer, blocking 53Bp1 translation (TCCATCTGCTCCCCTGGCATCC; all phosphorodiamidate morpholino (PMO); octaguanidine dendrimer covalently linked, position not given here, further chemistry not fully specified)”, the “presence of Rpa1 (indicative of HR)” value in data set [1] (in vivo morpholino 12.5 mg/kg i.p. every other day, EYA1A-overexpressing mice, UUO) is reported as “increased presence of Rpa1”. The “53Bp1 within chronically injured kidneys” value in data set [1] (in vivo morpholino 12.5 mg/kg i.p. every other day, EYA1A^tg mice, UUO) is on record as “Depletion of 53Bp1”. In data set [1] (setting [2]), the fibroblast accumulation result is recorded as “attenuated” and the renal fibrosis result is reported as “attenuated”. As to `O=c1ccc(-c2ccccc2)nn1-c1nc2ccccc2s1` [NSC No. 629659, 2-(2-benzothiazolyl)-6-phenyl-3(2H)-pyridazinone], the EYA1A phosphatase activity result at EYA1A is “Strong inducers”.

For the molecule `CN(C)c1cccc(/C=C(\C#N)c2ccccc2)c1` [NSC No. 667251, (Z)-3-[3-(dimethylamino)phenyl]-2-phenylprop-2-enenitrile], on EYA1A, the EYA1A phosphatase activity result is “Strong inducers”. The same measure, in the same setting: under “Hexapotassium hexatriaconta-p-oxooctadecaoxobis [μ9-[phosphato(3-)-κO:κO:κO:κO′:κO′:κO″:κO″:κO′″:κO′″]]octadeca-molybdate(6-) [NSC No. 622124]” stands “Strong inhibitors”; under `N#CC(=C1C=CC(=NO)C=C1)c1ccc(Cl)cc1` [NSC No. 405158, alpha-(p-chlorophenyl)-4-oxo-2,5-cyclohexadiene-δ1,α-acetonitrile oxime], “Strong inducers”; under `O=C1C=C(Nc2ccccc2C(=O)CC(=O)C(=O)Nc2ccc(Cl)cc2)c2ccccc2C1=O` [NSC No. 641253], “Strong inhibitors”. Regarding “[Mo12O36(PO4)] disodium salt [NSC No. 622116]”, the EYA1A phosphatase activity entry at EYA1A is given as “Strong inhibitors”.

For the molecule `Cc1c2ccncc2cc2c1[nH]c1ccccc12` [NSC 87206, 5-Methyl-6H-pyrido(4,3-b)carbazole], at EYA1A, the EYA1A phosphatase activity result was “Strong inhibitors”. For the molecule `O=c1[nH]c(=S)[nH]c(N=Cc2ccccc2)c1N=Cc1ccccc1` [SCR7], in data set [1] (setting [3]), the fibroblast accumulation result was “significantly reduced” and the fibrosis result is “significantly reduced”. In the case of `O=C1C(c2cnc3ccccc3n2)=C(O)c2ccccc21` [NSC No. 634224, 3-hydroxy-2-(2-quinoxalinyl)-1-indenone], at EYA1A, the EYA1A phosphatase activity result is reported as “Strong inducers”.

Regarding `COc1cc2cc3c4cc(OC)c(OC)cc4cc[n+]3c(C)c2cc1OC.O=C([O-])CS(=O)(=O)O` [NSC No. 154890, Dibenzo(a,g)quinolizinium, 2,3,10,11-tetramethoxy-8-methyl-sulfoacetate], on EYA1A, the EYA1A phosphatase activity entry is “Strong inhibitors”.
